Experimental data from patent publication US5914242A, “Method for diminishing myocardial infarction using protein phosphatase inhibitors” (priority 1997, dated 1999).

Columns and labels:
rPP1 = assay: Inhibition of recombinant PP1; assay type: biochemical; details: bacterially expressed human PP1
Description: (§1) PP1, an enzyme highly homologous to PP2A, could be expressed in a stable manner and in relatively large amounts. Thus, human PP1 was cloned and subcloned into a bacterial expression vector as was done for PP2A. […] To create a hybrid enzyme (a PP1/PP2A chimera) that could be expressed stably like rPP1 but would bind okadaic acid with high affinity like PP2A, a number of mutant forms of PP1 and PP2A were constructed. Then, through mutational analysis, the okadaic acid binding domain of PP2A was identified. The okadaic acid binding domain from PP2A was cloned behind the amino terminal domain of PP1. The hybrid, referred to as CRHM-2, was subcloned into an expression vector. Restriction analysis of CRHM-2 confirmed the identity of the construct.

PP1/PP2A-chimera (CRHM2) = assay: Inhibition of recombinant PP1/PP2A chimera; assay type: biochemical, human PP1 / bovine PP2A; details: enzyme printed as rPP2Ac-1
Experimental: FIG. 6: Sequence of a PP1/PP2A chimera. To characterize the fostriecin binding site, the N-terminal region of PP1 was ligated to the C-terminal region of PP2A (in bold) to produce a PP1/PP2A-chimera (CRHM2). Previous studies indicate that the okadaic acid binding domain is contained in the C-terminal region of PP2A that was incorporated into CRHM2.
FIG. 7: Effect of fostriecin and okadaic acid on the activity of recombinant CRHM2. CRHM2 activity was assayed in the presence of the indicated amount of fostriecin (FIG. 7A) or okadaic acid (FIG. 7B). […] Assays were conducted as described in FIG. 5. Each point represents the mean ± SE (n>6).
as §1
In these studies, the bacterial expressed PP1/PP2A hybrid enzyme was produced by growing appropriate strains of transformed E. coli at 18° C. for 48 hours in LB-media containing 50 μg/ml ampicillin, 1 mM MnCl2, and 50 μM IPTG. The bacteria were lysed with a French Press, and after centrifugation at 15,000×g for 45 min, the phosphatase was partially purified via ion-exchange [High Q (BioRad) and MonoQ (Pharmacia)] and affinity [Heparin-Sepharose (Pharmacia)] chromatography. The sensitivity of the chimera to fostriecin was determined employing the same protein phosphatase assay employed with endogenous PP1 or PP2A, with the addition of MnCl2 (1 mM) to the assay buffer.

C=C1[C@@H](O)[C@@H]2O[C@]3(CC[C@H](/C=C/[C@@H](C)[C@@H]4CC(C)=C[C@@]5(O[C@H](C[C@@](C)(O)C(=O)O)CC[C@H]5O)O4)O3)CC[C@H]2O[C@@H]1[C@@H](O)C[C@H](C)[C@H]1O[C@@]2(CCCCO2)CC[C@H]1C [okadaic acid, reference compound]
sensitivity of rPP1 to inhibition, relative to PP2A (rPP1): less sensitive to inhibition by okadaic acid than PP2A | binding affinity to the recombinant hybrid enzyme (PP1/PP2A-chimera (CRHM2)): comparable affinity to PP2A
